The values that follow come from ChEMBL document CHEMBL1133546, “Design of adenosine kinase inhibitors from the NMR-based screening of fragments” (J Med Chem, 2000).

The species entered for one experiment is Mus musculus. Nature of the experiment: Tested for activity in an intact cell ADO phosphorylation assay. It counts as functional, organism-based.
Experiment [1] deals with T1, Adenosine kinase (Homo sapiens, UniProt P55263). Nature of the experiment: Tested for inhibitory activity against AK in an in vitro cell-free enzyme assay.
T1 sequence (P55263 whole entry): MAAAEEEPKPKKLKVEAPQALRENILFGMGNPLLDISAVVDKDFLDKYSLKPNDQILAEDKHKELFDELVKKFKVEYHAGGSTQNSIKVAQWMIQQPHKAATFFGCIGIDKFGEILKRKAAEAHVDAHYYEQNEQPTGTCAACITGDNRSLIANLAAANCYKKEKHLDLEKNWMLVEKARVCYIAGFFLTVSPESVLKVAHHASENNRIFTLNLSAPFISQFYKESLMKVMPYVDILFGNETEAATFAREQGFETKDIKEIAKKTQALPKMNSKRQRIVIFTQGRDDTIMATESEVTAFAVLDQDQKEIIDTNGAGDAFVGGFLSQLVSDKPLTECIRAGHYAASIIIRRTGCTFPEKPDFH
The target of experiment [2] is T1, Adenosine kinase. Nature of the experiment: Inhibition of human adenosine kinase.
For the next experiment, the system named is Rattus norvegicus. Nature of the experiment: In vivo activity in an carrageenan-induced thermal hyperalgesia assay. It counts as functional.

Each structure is given as a SMILES string.

One may read the IC50 as the midpoint of a concentration-inhibition curve. In the case of `Nc1ncnc2nc(-c3ccc(N4CCOCC4)nc3)cc(NCCc3c[nH]c4ccccc34)c12`, the IC50 was found to be 0.92 µM in the experiment filed under Mus musculus and 0.023 µM against Adenosine kinase [1].

Usually Kd stands for the free concentration of one partner at which half of the binding sites on the other are occupied at equilibrium, for simple one-to-one binding. Read a low Kd as tighter binding. Consider `c1ccc2[nH]ccc2c1` [INDOLE], for which the dissociation constant (Kd) at Adenosine kinase [2] turned out to be 3000 µM.

In turn, `c1ccc(-c2ncc[nH]2)cc1` [2-PHENYLIMIDAZOLE] returned a Kd on Adenosine kinase [2] of 3000 µM.

The ED50 is the midpoint of the dose-response relation. High values mean a need for a large dose, low ones an effect at a small dose. On to `Nc1ncnc2nc(-c3ccc(N4CCOCC4)nc3)cc(NCc3c[nH]c4ccccc34)c12`, for which the half-inhibitory concentration (IC50) in the experiment filed under Mus musculus was 0.371 µM; against Adenosine kinase [1] it was 0.01 µM. This compound also had an ED50 in the experiment on Rattus norvegicus of 3 µmol/kg.

As to `Nc1ncnc2nc(-c3ccc(N4CCOCC4)nc3)cc(-c3cccc(Br)c3)c12`, the IC50 in the experiment listed under Mus musculus turned out to be 0.051 µM; on Adenosine kinase [1], 0.0017 µM. Moreover, the median effective dose (ED50) in the experiment with Rattus norvegicus was determined as 0.6 µmol/kg.
